From patent publication US7081092B2, “Methods and apparatus for monitoring and quantifying the movement of fluid” (IMCOR Pharmaceutical Company, priority 1994, dated 2006)

Columns and labels:
Format in all cases: physicochemical
[1] = Solubility/miscibility of liquid form with hexane
Procedure: In such systems, suitable gases are ones that have a solubility/miscibility of their liquid forms with hexane, which is a model for the hydrophobic region of surfactants, of greater than 10% mole/mole at 37° C. For gases with a boiling point below 37° C., e.g. butane and perfluorobutane, this measurement must be carried out at elevated pressure. The adsorbing gas should be present in the bubble gas phase at a concentration of more than 2% by mole fraction of the gas mixture and preferably at about 5%, 10%, 25%, 50%, or 100%. The use of fluorinated surfactants with fluorinated gases is preferred. The liquid phase of the adsorbing gas should be relatively insoluble in water, less than 1% wt./wt. solubility/miscibility.

Solubility in water = experiment: Solubility in water
Excerpt: (§1) In order to stabilize microbubbles in this fashion and provide desirable harmonic characteristics, the osmotic agent is preferably present in the gas phase of the bubble at a mole fraction concentration of greater than approximately 2%, and more preferably at about 5%, 10%, 25%, 50%, or 100%. The vapor inside the bubble is preferably near saturation under the conditions of examination, preferably at least about 50%, 75% or 100% of the saturation concentration. Thus, for microbubbles used for imaging in a human, the liquid phase of the vapor in the bubble must have a vapor pressure at 37° C. greater than 2% of the pressure inside the bubble (one atmosphere plus the blood pressure of the human being examined plus the pressure caused by the surface tension of the bubble, the LaPlace pressure). This total pressure for 3 micron bubbles could reach 1.5 bar and thus requires the liquid phase of the vapor in the bubble to have a vapor pressure at 37° C. greater than approximately 23 torr. The liquid phase of the vapor should also have a low solubility in water, preferably less than 1% wt./wt.
In such systems, suitable gases are ones that have a solubility/miscibility of their liquid forms with hexane, which is a model for the hydrophobic region of surfactants, of greater than 10% mole/mole at 37° C. […]

Vapor pressure at 37° C. = experiment: Vapor pressure at 37° C.
Excerpt: as §1

| Solubility in hexane [1] | Water solubility (Solubility in water) | Vapor pressure (Vapor pressure at 37° C.) | Solubility in water and hexane versus criteria for adsorption in surfactant layer [1] | SMILES |
| --- | --- | --- | --- | --- |
| greater than 10 % mole/mole | less than 1 % wt./wt. | – | – | FC(F)(F)C(F)(F)C(F)(F)C(F)(F)F [perfluorobutane] |
| – | less than 1 % wt./wt. | over 23 torr | – | FC(F)(F)C(F)(F)C(F)(F)C(F)(F)C(F)(F)C(F)(F)F [perfluorohexane] |
| – | – | – | meet the criteria above | FC(F)(F)C(F)(F)C(F)(F)C(F)(F)C(F)(F)F [perfluoropentane] |
